Earlier results, collected in patent US8728489B2, “Immunotherapy for chronic hepatitis C virus infection” (priority 2008, dated 2014).

What was measured:
[1] = in vivo

**Q.** What does the source list for `NC(=O)c1ncn([C@@H]2O[C@H](CO)[C@@H](O)[C@H]2O)n1` [Ribavirin, 1-(beta)-D-ribofuranosyl-1H-1,2,4-triazole-3-carboxamide]?
**A.** patients with hemolytic anemia [1]: 20-30%; solubility in anhydrous alcohol: slightly soluble; solubility in water: freely soluble
